Measurements taken from PubChem BioAssay AID328 (DTP/NCI, 2004).
“And” between values parts separate entries of the source, which are not always exact repeats. Equal entries are not always repeated. Toxic doses and inconclusive results are not listed. How the source made its calls: active means survival T/C of 150% or more; inactive means T/C below 125% in these data.

System: BDF1 mice, P388 leukemia ip, median survival T/C
Experiment: NCI In Vivo Anticancer Drug Screen. Data for tumor model P388 Leukemia (intraperitoneal) in B6D2F1 (BDF1) mice
Conditions: endpoint: median survival time, higher = longer survival
Procedure, shortened: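 Antitumour effect was judged in vivo: survival in drug-treated mice, normalised to that of vehicle-dosed controls, gives the reported T/C.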

[1] = dose: 50.0 mg/kg/injection, schedule: Q01DX009 (ip), vehicle: saline with Tween-80
[2] = dose: 100.0 mg/kg/injection, schedule: Q01DX009 (ip), vehicle: saline with Tween-80
[3] = dose: 100.0 mg/kg/injection, schedule: Q04DX003 (ip), vehicle: saline with Tween-80
[4] = dose: 200.0 mg/kg/injection, schedule: Q01DX009 (ip), vehicle: saline with Tween-80
[5] = dose: 200.0 mg/kg/injection, schedule: Q04DX003 (ip), vehicle: saline with Tween-80
[6] = dose: 400.0 mg/kg/injection, schedule: Q04DX003 (ip), vehicle: saline with Tween-80
[7] = dose: 100.0 mg/kg/injection, schedule: Q01DX001 (ip), vehicle: Klucel (hydroxypropylcellulose) (HPC)
[8] = dose: 200.0 mg/kg/injection, schedule: Q01DX001 (ip), vehicle: Klucel (hydroxypropylcellulose) (HPC)
[9] = dose: 400.0 mg/kg/injection, schedule: Q01DX001 (ip), vehicle: Klucel (hydroxypropylcellulose) (HPC)

Measured: T/C

O=CN(SSN(C=O)C1CCCCC1)C1CCCCC1
inactive: [1] 108 % of control and 116 % of control | [2] 122 % of control

COC(=O)CCC(=O)CCC(C)C
inactive: dose: 25.0 mg/kg/injection, schedule: Q01DX009 (ip), vehicle: saline with Tween-80 107 % of control | [1] 103 % of control | [2] 92 % of control | [3] 111 % of control | [4] 103 % of control | [5] 122 % of control | dose: 400.0 mg/kg/injection, schedule: Q01DX009 (ip), vehicle: saline with Tween-80 92 % of control | [6] 116 % of control

CCCCCCCCCCSS(=O)(=O)O
inactive: dose: 25.0 mg/kg/injection, schedule: Q01DX001 (ip), vehicle: other 87 % of control | dose: 50.0 mg/kg/injection, schedule: Q01DX001 (ip), vehicle: other 95 % of control | dose: 100.0 mg/kg/injection, schedule: Q01DX001 (ip), vehicle: other 95 % of control

COc1ccc(C=O)c(Cl)c1OC
inactive: dose: 12.0 mg/kg/injection, schedule: Q04DX003 (ip), vehicle: Klucel (hydroxypropylcellulose) (HPC) 90 % of control | dose: 25.0 mg/kg/injection, schedule: Q04DX003 (ip), vehicle: Klucel (hydroxypropylcellulose) (HPC) 100 % of control | dose: 50.0 mg/kg/injection, schedule: Q04DX003 (ip), vehicle: Klucel (hydroxypropylcellulose) (HPC) 95 % of control | [7] 113 % of control | dose: 100.0 mg/kg/injection, schedule: Q04DX003 (ip), vehicle: Klucel (hydroxypropylcellulose) (HPC) 109 % of control | [8] 109 % of control | dose: 200.0 mg/kg/injection, schedule: Q04DX003 (ip), vehicle: Klucel (hydroxypropylcellulose) (HPC) 104 % of control | [9] 113 % of control

CCCCCCCOc1ccc(OCCCC[N+]2(CC)CCCCC2)cc1
inactive: dose: 6.25 mg/kg/injection, schedule: Q01DX009 (ip), vehicle: saline 100 % of control

CC(C)n1c(=S)[nH]c2ccccc2c1=O
inactive: [7] 100 % of control | [8] 100 % of control | [9] 100 % of control

COc1cc2c(cc1OC)C(CN)C2 (centres undefined)
inactive: dose: 50.0 mg/kg/injection, schedule: Q01DX009 (ip), vehicle: saline 98 % of control | dose: 100.0 mg/kg/injection, schedule: Q01DX009 (ip), vehicle: saline 96 % of control | dose: 200.0 mg/kg/injection, schedule: Q01DX009 (ip), vehicle: saline 98 % of control

C=CC(=O)c1c(O)cc(O)c2c1C(C)C(=O)O2 (centres undefined)
inactive: dose: 75.0 mg/kg/injection, schedule: Q01DX009 (ip), vehicle: Klucel (hydroxypropylcellulose) (HPC) 113 % of control

COc1cc(C(=O)N2CC2)cc(OC)c1OC
inactive: dose: 3.12 mg/kg/injection, schedule: Q01DX009 (ip), vehicle: water 108 % of control | dose: 6.25 mg/kg/injection, schedule: Q01DX009 (ip), vehicle: water 90 % of control | dose: 12.5 mg/kg/injection, schedule: Q01DX009 (ip), vehicle: water 99 % of control | dose: 25.0 mg/kg/injection, schedule: Q01DX009 (ip), vehicle: water 101 % of control | dose: 50.0 mg/kg/injection, schedule: Q01DX009 (ip), vehicle: water 96 % of control

CCCCSc1nc(N)nc2c1ncn2CC(C)CC (centres undefined)
inactive: [3] 100 % of control | [5] 100 % of control | [6] 100 % of control

Cc1cccc(Cl)c1NC(=O)CCCl
inactive: [3] 90 % of control | [5] 90 % of control | [6] 109 % of control

CC1CN1P(=O)(Oc1ccccc1)N1CC1C (centres undefined)
inactive: dose: 65.0 mg/kg/injection, schedule: Q01DX009 (ip), vehicle: saline 104 % of control

O=S(c1ccccc1)c1c(Cl)c(Cl)nc(Cl)c1Cl (centres undefined)
inactive: dose: 2.75 mg/kg/injection, schedule: Q01DX009 (ip), vehicle: saline with Tween-80 109 % of control | dose: 5.5 mg/kg/injection, schedule: Q01DX009 (ip), vehicle: saline with Tween-80 118 % of control | dose: 11.0 mg/kg/injection, schedule: Q01DX009 (ip), vehicle: saline with Tween-80 113 % of control | dose: 25.0 mg/kg/injection, schedule: Q04DX003 (ip), vehicle: saline with Tween-80 113 % of control | dose: 50.0 mg/kg/injection, schedule: Q04DX003 (ip), vehicle: saline with Tween-80 121 % of control

CCC(c1ccc(O)cc1)C(CC)c1ccc(OC)cc1 (centres undefined)
inactive: [1] 104 % of control | [2] 118 % of control | [4] 109 % of control
